# Assay results as given in patent publication US20260373497A1, “MOLECULAR MACHINES STIMULATE INTERCELLULAR CALCIUM WAVES AND CAUSE MUSCLE CONTRACTION” (William Marsh Rice University, priority 2022, published 2026).
# What was measured:
# HeLa cells = test: MM-induced calcium responses in HeLa cells; type: cell-based; details: 400 nm, 250 ms, 3.2×10^2 W cm^−2
# Source text: FIGS. 12A & 12B—ICW in HeLa cells after stimulation with MM 1 and light. (a) Confocal images of HeLa cells treated with MM 1 (blue) and Fluo-4 calcium tracking dye (green). The white circle in the bottom-left image depicts the area to which light stimulus was delivered. Scale bar is 50 μm and applies to all images. (b) Fluo-4 fluorescence traces of HeLa cells treated with MM 1 and stimulated with 250 ms pulse of 400 nm light delivered to a 5 μm diameter circular region of interest at 3.2×10^2 W cm^−2 stimulation power.
# Cell Culture and Preparation of Cells for Microscopy: HEK293 cells were chosen as the principal model system due to their prevalence in electrophysiological interrogation. […] HEK293 cells, HeLa cells, and N2A cells were cultured in DMEM (10% FBS, 1% penicillin/streptomycin) and passaged at <90% confluence. […]
# In Vitro Imaging and Stimulation: Cells were loaded in a Nikon A1-Rsi confocal system mounted on a widefield Ti-E fluorescence microscope. […] Laser stimulation for in vitro experiments was performed with a 400 nm photodiode laser (Coherent OBIS™ LX SF) operating in a fluorescence-recovery-after-photobleaching (FRAP) experiment mode, delivering up to 6.4×10^2 W cm^−2 at sample level. […] Fluo-4 fluorescence was collected for 30 s before and 2 min after stimulation. […]
# C2C12 myoblasts = test: MM-induced calcium release in C2C12 cells (Fluo-4); type: cell-based, mouse; details: MM 1, 1 s instead of 500 ms
smiles,measurement,setting,value
CC1Cc2ccc3ccccc3c2C1=C1c2ccccc2Sc2cc(NCCN(C)C)ccc21 (centres unmarked) [MM 1],Calcium responses induced by MM 1 actuation,HeLa cells,also observed
same,Calcium release at longer stimulation,C2C12 myoblasts,larger calcium release
